Laboratory results reported in patent US20230346770A1 (priority 2020, published 2023).

Test: Phase 1 crossover drug-drug interaction study, plasma pharmacokinetics in healthy adults
Conditions: for median tmax: both periods
[1] = Treatment B (with clarithromycin), Period 1
[2] = Treatment B (with clarithromycin), Period 2

CNCC[C@@](O)(c1cccc2ccccc12)[C@H](c1ccccc1)c1cc2cc(Br)ccc2nc1OC [M2]
AUC72h higher in Period 2 as compared to Period 1 (Treatment A): 41% | AUC240h higher in Period 2 as compared to Period 1 (Treatment A): 46% | Cmax higher in Period 2 as compared to Period 1 (Treatment A): 36% | Cmax (mean) (Treatment A (single dose 100 mg bedaquiline alone), Period 1, n=8): 12.0 ng/mL | Cmax (mean) (Treatment A (single dose 100 mg bedaquiline alone), Period 2, n=8): 16.3 ng/mL | AUC72 h (mean) (Treatment A, Period 1): 637 ng·h/mL | AUC240 h (mean) (Treatment A, Period 1): 1839 ng·h/mL | M/P ratio AUC72 h (M2/bedaquiline, corrected for molecular weight) (Treatment A, Period 1): 0.0481 | M/P ratio AUC240 h (M2/bedaquiline, corrected for molecular weight) (Treatment A, Period 1): 0.110 | M/P ratio Cmax (M2/bedaquiline, corrected for molecular weight) (Treatment A, Period 1): 0.00936 | tmax (median) (Treatment A, Period 1): 12.00 h | AUC72 h (mean) (Treatment A, Period 2): 898 ng·h/mL | AUC240 h (mean) (Treatment A, Period 2): 2691 ng·h/mL | M/P ratio AUC72 h (M2/bedaquiline, corrected for molecular weight) (Treatment A, Period 2): 0.0670 | M/P ratio AUC240 h (M2/bedaquiline, corrected for molecular weight) (Treatment A, Period 2): 0.141 | M/P ratio Cmax (M2/bedaquiline, corrected for molecular weight) (Treatment A, Period 2): 0.0142 | tmax (median) (Treatment A, Period 2): 12.00 h | median tmax (Treatment A): 12.00 h | AUC72h higher in Period 2 as compared to Period 1 (Treatment B): 2.1 fold | AUC240h higher in Period 2 as compared to Period 1 (Treatment B): 2.1 fold | Cmax higher in Period 2 as compared to Period 1 (Treatment B): 2.2 fold | Cmax (mean) (Treatment B (100 mg bedaquiline on Day 5 of clarithromycin 500 mg q12h Days 1-14), Period 1, n=8): 4.66 ng/mL | Cmax (mean) (Treatment B (100 mg bedaquiline on Day 5 of clarithromycin 500 mg q12h Days 1-14), Period 2, n=8): 9.89 ng/mL | AUC72 h (mean) [1]: 260 ng·h/mL | AUC240 h (mean) [1]: 886 ng·h/mL | M/P ratio AUC72 h (M2/bedaquiline, corrected for molecular weight) [1]: 0.0183 | M/P ratio AUC240 h (M2/bedaquiline, corrected for molecular weight) [1]: 0.0460 | M/P ratio Cmax (M2/bedaquiline, corrected for molecular weight) [1]: 0.0039 | tmax (median) [1]: 35.92 h | AUC72 h (mean) [2]: 543 ng·h/mL | AUC240 h (mean) [2]: 1884 ng·h/mL | M/P ratio AUC72 h (M2/bedaquiline, corrected for molecular weight) [2]: 0.0347 | M/P ratio AUC240 h (M2/bedaquiline, corrected for molecular weight) [2]: 0.0881 | M/P ratio Cmax (M2/bedaquiline, corrected for molecular weight) [2]: 0.00798 | tmax (median) [2]: 23.90 h | median tmax (Treatment B (with clarithromycin)): 23.91 h | reduction of AUC72h with clarithromycin co-administration (Treatment B vs Treatment A): 51% | reduction of AUC240h with clarithromycin co-administration (Treatment B vs Treatment A): 42% | reduction of Cmax with clarithromycin co-administration (Treatment B vs Treatment A): 52% | reduction of M/P ratio AUC72h with clarithromycin co-administration (Treatment B vs Treatment A): 56% | reduction of M/P ratio AUC240h with clarithromycin co-administration (Treatment B vs Treatment A): 49% | reduction of M/P ratio Cmax with clarithromycin co-administration (Treatment B vs Treatment A): 52% | time of maximum mean plasma concentration (both treatment groups): 12 hours post-dose | plasma concentration quantifiable until (both treatments): 240 hours post-dose | pre-dose plasma concentration in Period 2 relative to Cmax after the Period 2 single dose (prior to the Period 2 single dose of bedaquiline (carry-over)): > 10%
